Where two headings read alike, the source gives them in different places.
Tests used:
[1] = Fluorescence quantum yields (corrected emission spectra, relative to TPP); type: physicochemical; conditions: excitation wavelength 355 nm, emission 550-800 nm
Description: Mass spectra were recorded on a Finnigan MAT TSQ 700 triple quadrupole mass spectrometer equipped with an […]. The matrix-assisted laser desorption/ionization mass spectra of the porphyrins were obtained using a dithranol matrix. FAB-MS spectra were obtained using a 3-nitrobenzyl alcohol (NOBA) matrix. ^1H-NMR spectra were measured at 60 MHz on a Jeol JNM-PMX60 spectrometer, at 270 MHz on a Jeol EX 270 spectrometer and at 300 MHx on a Varian Gemini-300 spectrometer in CDCl3 using TMS as an internal reference. Ultraviolet/visible spectra of solutions of compounds in tetrahydrofuran (THF) or toluene were measured using a Hitachi U-3000 spectrophotometer or a ATI-Unicam UV-2 spectrophotometer. Reflectance-absorbance infra red (RAIR) spectra were recorded on a BIO-RAD FTS 165 spectrophotometer. Fluorescence emission spectra were recorded using a Spex Fluorolog 3 spectrophotometer at an excitation wavelength of 355 nm, emission at 550 to 800 nm, with a bandpass of 2 nm.
The emission spectra were recorded using a Spex Fluorolog 3, excitation wavelength=355 nm, emission 550-800 nm, with a bandpass of 2 nm. A spectrum was recorded for each of the title compounds of Examples 67 to 81.
The fluorescence quantum yield for each of the title compounds of Examples 67 to 81 was determined by measuring the integral of the corrected emission spectra for each compound and calculated relative to TPP=0.11 (Handbook of Photochemistry Ed 2, Murov, Carmichael and Hug, Dekker 1993). The fluorescence quantum yield for each of the title compounds of Examples 67 to 81 are listed in Table 1; values for Zn TPP and Mg TPP are included in Table 1 for reference but they were not measured in this work.

[2] = Singlet oxygen quantum yields (singlet oxygen phosphorescence at 1270 nm); type: physicochemical; conditions: for quantum yield of singlet oxygen production, ΦΔ (cross-calibration of reference materials): cross-calibrated against TPP ΦΔ=0.58, present work
Description: The singlet oxygen quantum yields were determined by the direct measurement of singlet oxygen phosphorescence at 1270 nm. Samples were excited using the third harmonic of a Q-switched Nd:YAG (neodymium: yttrium-aluminium-garnet) Spectra Physics GCR-150-10 laser, operating at an excitation wavelength of 355 nm. A small fraction of the laser output was passed through a solution state filter containing aqueous cobalt (II) sulphate (CoSO4) to remove residual 532 and 1064 nm radiation and then down a 8 mm diameter liquid light guide (Oriel). For the measurements the end of the light guide was held against a 1 cm×1 cm fluorescence cuvette (Hellma) holding the sample. During the course of the experiments the incident laser energy for each measurement was determined using a pyroelectric detector held behind the sample. This detector was calibrated at the start of the experiment using a second calibrated energy meter (Gentec ED100). The laser energy was adjusted by placing cells containing aqueous sodium nitrite between the CoSO4 filter and the light guide. Typical pulse energies used were in the range of 25-500 μJ per pulse. Shot to shot noise was estimated to be <10% and sets of 20 shots gave an average value within <3%.
Phosphorescence from the sample was collected and passed through an interference filter centred at 1270 nm available from (Infra Red Engineering Ltd) and then focused onto the active area of a liquid nitrogen cooled germanium photodiode (North Coast EO-817P). The output from this device was AC coupled to a digital oscilloscope (Tektronix TDS-320) which digitised and averaged the transients. Typically 20 laser shots were used for each sample. The averaged data was transferred to a PC where it was stored and analysed.
A stock solution of each of the title compounds of Examples 67 to 81 was prepared by dissolving a small sample of the respective title compound in approximately 5 ml of toluene (Fisher Scientific, Analytical grade). The exact concentrations of the stock solution was not determined.
A working solution of each of the title compounds of Examples 67 to 81 was prepared by diluting the respective stock solution with toluene to give an absorbance of 0.100±0.005 at 355 nm when placed in a ultraviolet/visible spectrometer (ATI-Unicam UV-2) compared to a reference cell containing the pure toluene solvent. The ultraviolet/visible spectrum of each sample was also recorded over the range 300-700 nm.
All of the data were recorded at ambient temperature, 20-23° C., and the solutions were aerated. The singlet oxygen emission decay was recorded for each sample using 5 laser energies and the data for each measurement were fitted to an exponential decay of the form I(t)=A.exp(−t/τ), where I(t) is the measured intensity of singlet oxygen phosphorescence at time t, A is the intensity extrapolated back to t=0 (ie when the laser fires), and τ is the lifetime of singlet oxygen. A typical decay for the title compound of Example 78 in toluene excited at 355 nm using a pulse energy of 365 μJ, where A=19.6 and τ=27.8 μs, is shown in FIG. 2.
A plot of A versus the incident laser energy was drawn for each sample and the slope determined. The slope of such a graph is proportional to the singlet oxygen quantum yield. An example of a plot showing the linear relationship between the singlet oxygen emission intensity and the laser energy for the title compound of Example 78 and meso-tetraphenylporphyrin (TPP) is shown in FIG. 3.
The experiments were carried out using batches of 5 samples of the working solution of each of the title compounds of 67 to 81 plus one reference sample meso-tetraphenylporphyrin (TPP). Each run was repeated at least once. The data sets obtained for each sample were within ±5% of the mean value.
The dominant sources of error in the experiment include the shot-to-shot fluctuations in the laser and the difference in absorbances of the samples at the excitation wavelength. The values have an error of ±10%. […]

[3] = reference values from Handbook of Photochemistry Ed 2; not measured in this work; cited from earlier work
[4] = literature values (Rossbroich et al. 1985; Wilkinson et al. 1993); cited from earlier work

Quantum yield of fluorescence, relative to TPP = 0.11 [1] | Structure (SMILES) | ΦΔ (singlet oxygen quantum yield) ([2]; aerated toluene, excitation 355 nm, 20-23° C., relative to TPP ΦΔ=0.58) | τ, lifetime of singlet oxygen ([2]; toluene, excited at 355 nm, pulse energy 365 μJ (FIG. 2)) [μs] | Quantum yield of fluorescence, relative to TPP = 0.11 [3] | quantum yield of singlet oxygen production, ΦΔ, literature value [4] | quantum yield of singlet oxygen production, ΦΔ (cross-calibration of reference materials) [2]
0.04 | C=CCCOCCCCCCCCCCCCOc1ccc(-c2c3nc(c(-c4cc(OCCCCCC)cc(OCCCCCC)c4)c4ccc([n-]4)c(-c4cc(OCCCCCC)cc(OCCCCCC)c4)c4nc(c(-c5cc(OCCCCCC)cc(OCCCCCC)c5)c5ccc2[n-]5)C=C4)C=C3)cc1.[Zn+2] [Example 78, 5-[4-(12-but-3-Enyloxy-dodecyloxy)-phenyl]-10,15,20-tris-(3,5-dihexyloxy-phenyl)-porphyrinato Zinc] | 0.78 ± 0.08 | 27.8 | – | – | –
– | C1=Cc2nc1c(-c1ccccc1)c1ccc([n-]1)c(-c1ccccc1)c1nc(c(-c3ccccc3)c3ccc([n-]3)c2-c2ccccc2)C=C1.[Mg+2] [Mg TPP, magnesium tetraphenylporphyrin] | – | – | 0.15 | – | –
– | C1=Cc2nc1c(-c1ccccc1)c1ccc([nH]1)c(-c1ccccc1)c1nc(c(-c3ccccc3)c3ccc([nH]3)c2-c2ccccc2)C=C1 [TPP, meso-tetraphenylporphyrin] | – | – | 0.11 | 0.58 | –
– | C1=Cc2nc1c(-c1ccccc1)c1ccc([n-]1)c(-c1ccccc1)c1nc(c(-c3ccccc3)c3ccc([n-]3)c2-c2ccccc2)C=C1.[Zn+2] [Zn TPP, zinc tetraphenylporphyrin] | – | – | 0.04 | 0.73 | 0.77±0.07
– | [Zn+2].c1ccc2c(c1)-c1nc-2nc2[n-]c(nc3nc([n-]c4nc(n1)-c1ccccc1-4)-c1ccccc1-3)c1ccccc21 [zinc phthalocyanine, reference compound] | – | – | – | 0.50 | 0.46±0.05
